Data taken from the supplement of paper PMC10883282.

Columns and labels:
Assay in all cases: relative viability vs DMSO control (72 h) (fraction); higher = more viable cells
HT1080 = system: HT1080
Procedure, shortened: (§1)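 Relative viability is percent growth read by ATPLite and averaged over up to triplicate wells. Sarcoma cells were seeded in 384-well plates to reach 80–90% confluence and given 2.5 µl of serially diluted compound after 24 h, from source plates of 10 mM to 0.0002 mM. Incubation lasted 72 h at 37 °C, 5% CO2, with 0.1% DMSO vehicle and a 5 µM positive control, and the data were rescaled so 1 equals full and 0 equals none.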

KHOS-NP = system: KHOS-NP
Procedure, shortened: as §1

SK-ES-1 = system: SK-ES-1
Procedure, shortened: as §1

RD-ES = system: RD-ES
Procedure, shortened: as §1

SW982 = system: SW982
Procedure, shortened: as §1

KHOS-240S = system: KHOS-240S
Procedure, shortened: as §1

G401 = system: G401
Procedure, shortened: as §1

A204 = system: A204
Procedure, shortened: as §1

SW1353 = system: SW1353
Procedure, shortened: as §1

SW872 = system: SW872
Procedure, shortened: as §1

SYO-1 = system: SYO-1
Procedure, shortened: as §1

SW684 = system: SW684
Procedure, shortened: as §1

O=C(c1ccc(F)c(F)c1Nc1ccc(I)cc1F)N1CC(O)([C@@H]2CCCCN2)C1 [Cobimetinib]
Details	relative viability
A204, 0.00017 µM	1.1
A204, 0.00051 µM	1.11
A204, 0.00152 µM	1.12
A204, 0.00457 µM	1.11
A204, 0.01372 µM	1.079
A204, 0.04115 µM	1.04
A204, 0.1235 µM	1.01
A204, 0.3704 µM	0.807
A204, 1.111 µM	0.616
A204, 3.333 µM	0.424
A204, 10 µM	0.0102
G401, 0.00017 µM	0.99
G401, 0.00051 µM	1.03
G401, 0.00152 µM	0.993
G401, 0.00457 µM	0.99
G401, 0.01372 µM	0.951
G401, 0.04115 µM	0.896
G401, 0.1235 µM	0.786
G401, 0.3704 µM	0.643
G401, 1.111 µM	0.396
G401, 3.333 µM	0.0971
G401, 10 µM	0.0011
HT1080, 0.00017 µM	1.07
HT1080, 0.00051 µM	1.087
HT1080, 0.00152 µM	1.067
HT1080, 0.00457 µM	1.049
HT1080, 0.01372 µM	1.06
HT1080, 0.04115 µM	0.876
HT1080, 0.1235 µM	0.586
HT1080, 0.3704 µM	0.4917
HT1080, 1.111 µM	0.39
HT1080, 3.333 µM	0.247
HT1080, 10 µM	0.0054
KHOS-240S, 0.00017 µM	1.07
KHOS-240S, 0.00051 µM	1.07
KHOS-240S, 0.00152 µM	1.09
KHOS-240S, 0.00457 µM	1.05
KHOS-240S, 0.01372 µM	1.03
KHOS-240S, 0.04115 µM	0.936
KHOS-240S, 0.1235 µM	0.79
KHOS-240S, 0.3704 µM	0.709
KHOS-240S, 1.111 µM	0.669
KHOS-240S, 3.333 µM	0.549
KHOS-240S, 10 µM	0.0497
KHOS-NP, 0.00017 µM	1.09
KHOS-NP, 0.00051 µM	1.097
KHOS-NP, 0.00152 µM	1.085
KHOS-NP, 0.00457 µM	1.081
KHOS-NP, 0.01372 µM	1.08
KHOS-NP, 0.04115 µM	0.912
KHOS-NP, 0.1235 µM	0.438
KHOS-NP, 0.3704 µM	0.319
KHOS-NP, 1.111 µM	0.275
KHOS-NP, 3.333 µM	0.28
KHOS-NP, 10 µM	0.187
RD-ES, 0.00017 µM	0.999
RD-ES, 0.00051 µM	1.02
RD-ES, 0.00152 µM	0.985
RD-ES, 0.00457 µM	0.986
RD-ES, 0.01372 µM	0.945
RD-ES, 0.04115 µM	0.979
RD-ES, 0.1235 µM	0.955
RD-ES, 0.3704 µM	0.982
RD-ES, 1.111 µM	0.974
RD-ES, 3.333 µM	0.91
RD-ES, 10 µM	0.0147
SK-ES-1, 0.00017 µM	1.04
SK-ES-1, 0.00051 µM	1
SK-ES-1, 0.00152 µM	1.04
SK-ES-1, 0.00457 µM	1.03
SK-ES-1, 0.01372 µM	1.04
SK-ES-1, 0.04115 µM	1.01
SK-ES-1, 0.1235 µM	1.02
SK-ES-1, 0.3704 µM	0.982
SK-ES-1, 1.111 µM	0.923
SK-ES-1, 3.333 µM	0.842
SK-ES-1, 10 µM	0.0122
SW684, 0.00017 µM	1.23
SW684, 0.00051 µM	1.15
SW684, 0.00152 µM	1.17
SW684, 0.00457 µM	1.2
SW684, 0.01372 µM	1.13
SW684, 0.04115 µM	1.063
SW684, 0.1235 µM	0.941
SW684, 0.3704 µM	0.738
SW684, 1.111 µM	0.536
SW684, 3.333 µM	0.357
SW684, 10 µM	-0.00433
SW872, 0.00017 µM	1.06
SW872, 0.00051 µM	1.01
SW872, 0.00152 µM	0.923
SW872, 0.00457 µM	0.775
SW872, 0.01372 µM	0.67
SW872, 0.04115 µM	0.622
SW872, 0.1235 µM	0.606
SW872, 0.3704 µM	0.574
SW872, 1.111 µM	0.498
SW872, 3.333 µM	0.39
SW872, 10 µM	0.00283
SW982, 0.00017 µM	1.04
SW982, 0.00051 µM	1.02
SW982, 0.00152 µM	1
SW982, 0.00457 µM	1.01
SW982, 0.01372 µM	0.98
SW982, 0.04115 µM	0.942
SW982, 0.1235 µM	0.878
SW982, 0.3704 µM	0.804
SW982, 1.111 µM	0.765
SW982, 3.333 µM	0.578
SW982, 10 µM	0.0118
SW1353, 0.00017 µM	0.989
SW1353, 0.00051 µM	0.983
SW1353, 0.00152 µM	1
SW1353, 0.00457 µM	0.979
SW1353, 0.01372 µM	0.899
SW1353, 0.04115 µM	0.838
SW1353, 0.1235 µM	0.778
SW1353, 0.3704 µM	0.704
SW1353, 1.111 µM	0.669
SW1353, 3.333 µM	0.617
SW1353, 10 µM	0.0141
SYO-1, 0.00017 µM	0.985
SYO-1, 0.00051 µM	0.998
SYO-1, 0.00152 µM	0.964
SYO-1, 0.00457 µM	0.9431
SYO-1, 0.01372 µM	0.928
SYO-1, 0.04115 µM	0.907
SYO-1, 0.1235 µM	0.929
SYO-1, 0.3704 µM	0.84
SYO-1, 1.111 µM	0.719
SYO-1, 3.333 µM	0.566
SYO-1, 10 µM	-0.0086

CNC(=O)c1c(C)oc2cc(Oc3ncnc4cc(OC)c(OC)cc34)ccc12 [Fruquintinib]
Details	relative viability
A204, 0.00017 µM	1.06
A204, 0.00051 µM	1.09
A204, 0.00152 µM	1.05
A204, 0.00457 µM	1.05
A204, 0.01372 µM	1.06
A204, 0.04115 µM	0.999
A204, 0.1235 µM	0.967
A204, 0.3704 µM	0.73
A204, 1.111 µM	0.409
A204, 3.333 µM	0.32
A204, 10 µM	0.258
G401, 0.00017 µM	0.988
G401, 0.00051 µM	1.02
G401, 0.00152 µM	1.02
G401, 0.00457 µM	0.986
G401, 0.01372 µM	1.03
G401, 0.04115 µM	1.01
G401, 0.1235 µM	0.965
G401, 0.3704 µM	0.953
G401, 1.111 µM	0.9
G401, 3.333 µM	0.698
G401, 10 µM	0.57
HT1080, 0.00017 µM	1.08
HT1080, 0.00051 µM	1.06
HT1080, 0.00152 µM	1.058
HT1080, 0.00457 µM	1.04
HT1080, 0.01372 µM	1.07
HT1080, 0.04115 µM	1.04
HT1080, 0.1235 µM	1.03
HT1080, 0.3704 µM	1.04
HT1080, 1.111 µM	1.054
HT1080, 3.333 µM	1.02
HT1080, 10 µM	1.01
KHOS-240S, 0.00017 µM	1.06
KHOS-240S, 0.00051 µM	1.07
KHOS-240S, 0.00152 µM	1.08
KHOS-240S, 0.00457 µM	1.07
KHOS-240S, 0.01372 µM	1.07
KHOS-240S, 0.04115 µM	1.08
KHOS-240S, 0.1235 µM	1.03
KHOS-240S, 0.3704 µM	0.987
KHOS-240S, 1.111 µM	0.9394
KHOS-240S, 3.333 µM	0.8
KHOS-240S, 10 µM	0.755
KHOS-NP, 0.00017 µM	1.114
KHOS-NP, 0.00051 µM	1.11
KHOS-NP, 0.00152 µM	1.11
KHOS-NP, 0.00457 µM	1.09
KHOS-NP, 0.01372 µM	1.11
KHOS-NP, 0.04115 µM	1.099
KHOS-NP, 0.1235 µM	1.08
KHOS-NP, 0.3704 µM	1.07
KHOS-NP, 1.111 µM	1.07
KHOS-NP, 3.333 µM	1.03
KHOS-NP, 10 µM	1.027
RD-ES, 0.00017 µM	0.93
RD-ES, 0.00051 µM	0.979
RD-ES, 0.00152 µM	0.968
RD-ES, 0.00457 µM	0.952
RD-ES, 0.01372 µM	0.971
RD-ES, 0.04115 µM	0.935
RD-ES, 0.1235 µM	0.968
RD-ES, 0.3704 µM	0.934
RD-ES, 1.111 µM	0.945
RD-ES, 3.333 µM	0.917
RD-ES, 10 µM	0.928
SK-ES-1, 0.00017 µM	1.01
SK-ES-1, 0.00051 µM	1.07
SK-ES-1, 0.00152 µM	1.04
SK-ES-1, 0.00457 µM	1.07
SK-ES-1, 0.01372 µM	1.06
SK-ES-1, 0.04115 µM	1.1
SK-ES-1, 0.1235 µM	1.05
SK-ES-1, 0.3704 µM	1
SK-ES-1, 1.111 µM	0.971
SK-ES-1, 3.333 µM	0.951
SK-ES-1, 10 µM	0.926
SW684, 0.00017 µM	1.15
SW684, 0.00051 µM	1.12
SW684, 0.00152 µM	1.16
SW684, 0.00457 µM	1.18
SW684, 0.01372 µM	1.15
SW684, 0.04115 µM	1.15
SW684, 0.1235 µM	1.1
SW684, 0.3704 µM	1.13
SW684, 1.111 µM	1.12
SW684, 3.333 µM	1.09
SW684, 10 µM	1.07
SW872, 0.00017 µM	1.09
SW872, 0.00051 µM	1.06
SW872, 0.00152 µM	1.03
SW872, 0.00457 µM	1.04
SW872, 0.01372 µM	1.03
SW872, 0.04115 µM	0.988
SW872, 0.1235 µM	1
SW872, 0.3704 µM	0.963
SW872, 1.111 µM	0.9736
SW872, 3.333 µM	0.893
SW872, 10 µM	0.852
SW982, 0.00017 µM	1.03
SW982, 0.00051 µM	1.03
SW982, 0.00152 µM	1.04
SW982, 0.00457 µM	1.02
SW982, 0.01372 µM	1.03
SW982, 0.04115 µM	1.04
SW982, 0.1235 µM	1.048
SW982, 0.3704 µM	1.04
SW982, 1.111 µM	1.04
SW982, 3.333 µM	0.992
SW982, 10 µM	0.925
SW1353, 0.00017 µM	1.051
SW1353, 0.00051 µM	1.02
SW1353, 0.00152 µM	1.02
SW1353, 0.00457 µM	1.01
SW1353, 0.01372 µM	1.02
SW1353, 0.04115 µM	1.01
SW1353, 0.1235 µM	0.997
SW1353, 0.3704 µM	0.925
SW1353, 1.111 µM	0.863
SW1353, 3.333 µM	0.746
SW1353, 10 µM	0.763
SYO-1, 0.00017 µM	1.01
SYO-1, 0.00051 µM	1.034
SYO-1, 0.00152 µM	0.971
SYO-1, 0.00457 µM	0.963
SYO-1, 0.01372 µM	0.921
SYO-1, 0.04115 µM	0.918
SYO-1, 0.1235 µM	0.817
SYO-1, 0.3704 µM	0.651
SYO-1, 1.111 µM	0.498
SYO-1, 3.333 µM	0.417
SYO-1, 10 µM	0.402
